Active and inactive are the calls of the source.
Legend:
[1] = target: Fructose-bisphosphate aldolase (Mycobacterium tuberculosis, UniProt P9WQA3); experiment: Fluorescence-based biochemical high throughput dose response assay for inhibitors of the fructose-bisphosphate aldolase (FBA) of M. tuberculosis.; assay type: functional
Vero = experiment: Vero cell toxicity, dose response, cytotoxicity control, plate reader, cherry-pick samples (AID 687020); assay type: functional, cell-based; conditions: Chlorocebus sabaeus
Major prion protein = Major prion protein (Homo sapiens, UniProt P04156); assay type: functional, cell-based
[2] = target: 1-phosphatidylinositol 4,5-bisphosphate phosphodiesterase gamma-1 (Homo sapiens, UniProt P19174); experiment: Counterscreen for inhibitors of phospholipase C isozymes (PLC-B3): Fluorescence-based biochemical high throughput dose response assay to identify inhibitors of phospholipase C isozymes (PLC-gamma1).
[3] = target: 1-phosphatidylinositol 4,5-bisphosphate phosphodiesterase beta-3 (Homo sapiens, UniProt Q01970); experiment: Fluorescence-based biochemical high throughput dose response assay to identify inhibitors of phospholipase C isozymes (PLC-B3).
[4] = off-target signal loss in HeLa-CEM21 co-culture – HeLa F-luc CTL cells, cherry-picked, counter-screen for HIV-1 Env fusion inhibitor project, dose response (AID 652040); assay type: functional, cell-based;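 also: potency for signal decrease marking cytotoxic or nonspecific inhibition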
[5] = inhibitors of clade B AD8 Env fusion, dose response, cell-based, cherry-pick (AID 652062); assay type: functional;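 also: luciferase signal from cell-cell fusion driven by HIV-1 clade B AD8 Env; potency is for inhibitors of fusion seen as a drop in luminescence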
[6] = ZM109 Env clade C HIV-1 fusion inhibitors, dose response, HeLa effector, CEM target cells, luciferase, cherry-pick (AID 652058); assay type: functional, cell-based
[7] = inhibitors of HIV Env-driven cell fusion, dose response, cherry-pick (AID 652057); assay type: functional, cell-based
Kallikrein-7 = Kallikrein-7 (Homo sapiens, UniProt P49862); experiment: Fluorescence Intensity-based biochemical primary high throughput dose response assay to identify activators of kallikrein-7 (K7) zymogen.
[8] = target: T1, Zinc finger protein mex-5 (Caenorhabditis elegans, UniProt Q9XUB2); experiment: MEX-5/TCR-2 RNA interaction inhibitors, dose response, biochemical, C. elegans, fluorescence polarization (AID 1960)
T1 sequence (Q9XUB2 whole entry): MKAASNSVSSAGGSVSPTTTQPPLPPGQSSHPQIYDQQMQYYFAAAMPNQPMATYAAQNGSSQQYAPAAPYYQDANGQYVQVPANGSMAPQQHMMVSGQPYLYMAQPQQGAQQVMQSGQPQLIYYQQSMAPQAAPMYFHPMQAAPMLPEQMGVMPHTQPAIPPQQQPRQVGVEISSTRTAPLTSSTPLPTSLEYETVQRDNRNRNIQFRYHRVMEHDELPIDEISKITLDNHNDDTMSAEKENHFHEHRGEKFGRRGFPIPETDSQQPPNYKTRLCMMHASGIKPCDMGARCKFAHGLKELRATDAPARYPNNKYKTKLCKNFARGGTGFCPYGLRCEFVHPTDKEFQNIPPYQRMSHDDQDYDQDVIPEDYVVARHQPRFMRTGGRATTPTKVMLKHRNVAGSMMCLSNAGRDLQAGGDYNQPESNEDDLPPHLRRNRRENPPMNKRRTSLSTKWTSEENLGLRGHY

[9] = EDANS-DABCYL fluorescence interference, concentration series, dose response, artefact control for kallikrein-7 zymogen activator project, biochemical, fluorescence intensity, triplicate (AID 720493)
[10] = target: T2, RNA-binding protein pos-1 (Caenorhabditis elegans, UniProt G5EF15); experiment: inhibitors of POS-1/mex-3 RNA binding, dose response, biochemical, fluorescence polarization (AID 1964);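 also: purified POS-1 fused to maltose binding protein made in E. coli; potency of compounds blocking POS-1 binding to fluorescent RNA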
T2 sequence (G5EF15 whole entry): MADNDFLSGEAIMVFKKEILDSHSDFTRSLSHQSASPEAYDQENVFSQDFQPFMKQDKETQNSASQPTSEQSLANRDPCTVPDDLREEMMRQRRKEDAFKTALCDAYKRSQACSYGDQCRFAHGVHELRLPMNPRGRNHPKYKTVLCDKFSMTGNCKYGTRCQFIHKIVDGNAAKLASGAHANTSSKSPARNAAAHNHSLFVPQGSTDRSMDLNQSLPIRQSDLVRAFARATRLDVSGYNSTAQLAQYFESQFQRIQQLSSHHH

[11] = target: T3, Hepatocyte nuclear factor 4-alpha (Homo sapiens, UniProt P41235); assay type: functional, cell-based;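 also: biochemical luminescence-based dose-response counterscreen measuring inhibition of HNF4 dimerization, run alongside a screen for blockers of ABHD5–perilipin-5 interaction; split luciferase complementation of HNF4 fusion proteins in cell lysate measuring dimerization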
T3 sequence (P41235 whole entry): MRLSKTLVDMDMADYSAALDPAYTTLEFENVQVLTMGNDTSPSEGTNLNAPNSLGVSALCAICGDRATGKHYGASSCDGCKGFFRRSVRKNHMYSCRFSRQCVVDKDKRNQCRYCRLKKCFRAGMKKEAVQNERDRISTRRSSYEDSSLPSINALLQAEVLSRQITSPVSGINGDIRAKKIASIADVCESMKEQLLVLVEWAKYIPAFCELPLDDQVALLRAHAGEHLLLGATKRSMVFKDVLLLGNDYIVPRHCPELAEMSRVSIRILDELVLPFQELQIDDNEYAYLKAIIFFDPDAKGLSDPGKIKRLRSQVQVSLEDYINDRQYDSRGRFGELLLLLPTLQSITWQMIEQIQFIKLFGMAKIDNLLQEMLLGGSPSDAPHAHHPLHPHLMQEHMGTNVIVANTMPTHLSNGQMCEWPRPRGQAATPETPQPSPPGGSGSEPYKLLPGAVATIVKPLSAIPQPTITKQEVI

Paired box protein Pax-8 = Paired box protein Pax-8 (Homo sapiens, UniProt Q06710); experiment: inhibitors of PAX8-driven TPO luciferase reporter, dose response, RMG-I cells, cherry-pick (AID 687027); assay type: functional, cell-based;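 also: luciferase reporter driven by Pax8 target thyroperoxidase promoter measured by SteadyGlo luminescence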
[12] = inhibitors of PGC1a acetylation in cells, dose response, cell-based, cherry-picked samples (AID 720514); assay type: functional;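 also: potency may reflect raised or lowered acetylation signal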
[13] = non-specific cell cytotoxicity, dose response, cytotoxicity control for PAX8 inhibitor project, plate reader, dry powder samples (AID 743021); assay type: functional, cell-based
[14] = CFTR ΔF508 corrector activity in bronchial cells, dose response, human bronchial epithelial cells, plate reader, cherry-pick, two tests (AID 743267); assay type: functional, cell-based

Compound: CCN(CC)CCCNC(=O)CCC(=O)Nc1ccc2nc(N3CCC(C)CC3)cc(C)c2c1
- IC50 [1]: > 0.37 µM (active)

Compound: CC1CCOC(c2coc3ccccc3c2=O)O1 (centres undefined)
- AC50 (Vero): 24.2 µM (active)

Compound: CC(=O)Nc1ccc2nc(C)c(CC=C(Cl)Cl)c(O)c2c1
- IC50 (Major prion protein): 10.2 µM (inactive)
- IC50 (cells): > 138 µM (inactive)

Compound: O=C(CCNc1cc(Cl)cc(Cl)c1)c1cccs1
- IC50 [2]: > 123 µM (inactive)
- IC50 [3]: > 123 µM (inactive)

Compound: CCC(NS(=O)(=O)c1c(C)nc(O)nc1O)C12CC3CC(CC(C3)C1)C2 (centres undefined)
- AC50 [4]: 11.8 µM (active)
- AC50 [5]: 7.16 µM (active)
- AC50 [6]: 7.79 µM (active)
- AC50 [7]: 7.48 µM (active)

Compound: Cc1ccc(/C=C2\Oc3c(ccc(O)c3CN3CCN(C)CC3)C2=O)cc1
- EC50 (Kallikrein-7): 12.5 µM (inactive)
- EC50 [8]: 153 µM (active)
- EC50 [9]: > 7.73 µM (active)
- EC50 [10]: 43.7 µM (active)

Compound: C#CCN(C[C@@H]1[C@@H](OC(=O)NCCCCCC)[C@@H](OC(=O)NCCCCCC)Cn2c(=O)ccc(=O)n21)S(=O)(=O)c1ccc(C)cc1
- IC50 [11]: 34.7 µM (inactive)
- AC50 (Paired box protein Pax-8): 4.18 µM (active)
- AC50 [12]: 4.88 µM (active)
- AC50 [13]: 38.3 µM (active)

Compound: COc1ccccc1NS(=O)(=O)c1cc(NN=C(C(C)=O)C(=O)Nc2ccc(Cl)cc2)ccc1C
- AC50 [14]: 36.6 µM (active)

Reference: ChEMBL document CHEMBL1201862, “PubChem BioAssay data set” (2004)
